The results in this text go back to patent publication US20130089562A1, “METHODS OF TREATING LIVER CONDITIONS USING NOTCH2 ANTAGONISTS” (priority 2011, published 2013).

Test [1] has as its system Notch2 intracellular domain (ICD). The test is described as follows: Notch2 signaling in cultured oval cells (Western blot for γ-secretase cleaved Notch2 ICD; Hes1 expression). To be noted: FIG. 2H. The test is classed as cell-based, mouse. The text has this: The anti-activated Notch2 antibody (clone 40-2-7) was generated against the peptide VIMAKRKRKHGSLW, corresponding to amino acids 1697-1710 of the human Notch2 protein sequence (SEQ ID NO:73), coupled to KLH (YenZym Custom Antibodies, LLC). Splenocytes from a rabbit producing an antibody with the appropriate specificity were used to generate hybridomas (Epitomics, Inc.). Clone 40-2-7 was identified by screening the resulting rabbit monoclonal antibodies by immunoblotting and immunohistochemistry. This antibody recognizes both human (FIG. 7B, left panel) and mouse (FIG. 7B, right panel) active Notch2 at endogenous levels.
Progenitors cultured in the culture system maintained growth (FIG. 2A) and formed colonies consisting of small, tightly packed cells with a high nuclear-cytoplasmic ratio and a distinct raised edge (FIG. 2A, left panel). The cells within these colonies were uniformly EpCAM positive (FIG. 2A, right panel). […] Activated Notch2 was detected by Western blot analysis using a rabbit monoclonal antibody raised against the S3 cleaved form of the human Notch2 protein (FIG. 7B). […]
Notch2 signaling was active in cultured oval cells, as transcriptionally active Notch2 intracellular domain (ICD) could be detected using an antibody specific to the γ-secretase cleaved form of this receptor (FIG. 2H). […]

Test [2] has as its system primary oval cells (liver progenitor cells). The test is described as follows: Colony formation and proliferation of primary oval cell cultures on Sw-3T3 feeder fibroblasts. The test is classed as cell-based, mouse. As for the experimental part: To identify the signals that regulate hepatocyte differentiation from liver progenitor cells, transcriptional profiling was performed on adult liver progenitors (oval cells) from mice fed a choline deficient, ethionine supplemented (CDE) diet (FIG. 1A; FIG. 5A). This CDE model is known in the art as a model of chronic liver disease. CDE is also a steatohepatitis model (NASH). Chronic CDE can also lead to hepatocellular carcinoma (HCC), thereby also serving as a model for HCC. To induce an oval cell response, 8-12 week-old female C57BL/6N mice (Charles River) were fed a choline deficient diet (20% Lard; Teklad TD.04523) supplemented with 0.15% (w/v) Ethionine in the drinking water (Akhurst et al., Hepatology 34(3):519 (2001)). Liver non-parenchymal cells were isolated according to the protocol of del Castillo (del Castillo et al., Am. J. Pathol., 172(5):1238 (2008)) with the addition of 0.04% Hyaluronidase (Sigma) to the in vitro dissociation step.
To elucidate the role of Notch signaling in liver regeneration, an in vitro culture system was developed. Cell cultures were established by culturing primary oval cells on Sw-3T3 fibroblasts (ATCC), arrested with Mitomycin C (Sigma), in High Glucose Dulbecco's Modified Eagle Medium (DMEM; Invitrogen) supplemented with 15% Fetal Calf Serum (Sigma), non-essential amino acids (Invitrogen), Glutamax (Invitrogen), and ITS (Invitrogen).

Structures are written as SMILES.

Consider `C[C@H](NC(=O)Cc1cc(F)cc(F)c1)C(=O)N[C@H](C(=O)OC(C)(C)C)c1ccccc1` [DAPT, N—[N-(3,5-difluorophenacetyl)-1-alanyl]-S-phenylglycine t-butyl ester], for which, in test [1], the “appearance of γ-secretase cleaved (active) form of Notch2” value is on record as “absent”. The progenitor cell proliferation entry in test [2] (FIG. 2D) is on record as “small increase”. For the same compound, in test [2] (primary cultures treated with DAPT, FIG. 2B), the “enhancement of colony formation” value is on record as “approximately ten-fold”.
